Reference: patent EP1007514B1, “HETEROCYCLIC KETONES AS NPY Y5 ANTAGONISTS” (BAYER CORPORATION, priority 1997, dated 1999)

Assays:
human NPY Y2 = biological target: T1, human NPY Y2 (Homo sapiens, UniProt P49146); test: NPY Y2 receptor membrane binding, [125I]PYY; details: membrane protein; 25 pM [125I]PYY; test compounds at 5 µM final concentration; read-out: IC50 (µM) NPY receptor indicated hY2
T1 sequence (P49146 1-381): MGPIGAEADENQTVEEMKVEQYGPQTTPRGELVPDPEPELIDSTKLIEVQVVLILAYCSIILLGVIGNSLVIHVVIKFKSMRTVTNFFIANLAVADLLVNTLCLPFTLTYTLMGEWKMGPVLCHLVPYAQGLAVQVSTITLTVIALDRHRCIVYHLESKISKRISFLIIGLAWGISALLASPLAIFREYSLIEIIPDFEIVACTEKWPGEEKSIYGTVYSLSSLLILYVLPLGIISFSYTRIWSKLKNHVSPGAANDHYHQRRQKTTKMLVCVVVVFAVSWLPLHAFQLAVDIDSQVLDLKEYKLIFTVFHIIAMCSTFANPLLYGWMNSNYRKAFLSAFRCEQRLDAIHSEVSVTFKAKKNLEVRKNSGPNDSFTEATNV
Procedure: Assays to determine binding affinity for human NPY Y2 and Y4/PP1 receptor subtypes are performed on GF/C Millipore 96-well plates pretreated with 0.02% polyethylenimine. […] Samples consist of membrane protein, 25 pM [^125I]PYY and test compounds at 5 µM final concentration. Nonspecific binding is defined by 1 µM NPY. The binding buffer for human Y4/PP1 binding consists of 137 mM NaCl, 5.4 mM KCl, 0.44 mM KH2PO4, 1.26 mM CaCl2, 0.81 mM MgSO4, 20 mM HEPES, 1 mM dithiothreitol, 0.1% bacitracin, 100 mg/l streptomycin sulfate, 1 mg/l aprotinin, 10 mg/ml soybean trypsin inhibitor and 0.3% BSA, pH 7.4. Samples consist of membrane protein, 50 pM human [^125I] human PP (hPP:NEN DuPont, Boston MA) and test compounds diluted to a final concentration of 5 µM. One µM hPP is used to define nonspecific binding. After a 2 hour incubation at room temperature with constant mixing, the samples are aspirated on a vacuum manifold, and rinsed with ice-cold binding buffer. The amount of radioactivity in each well is quantitated with either gamma counting or liquid scintillation.

human Y4/PP1 = human Y4/PP1 (Homo sapiens, UniProt P50391); test: NPY Y4/PP1 receptor membrane binding, [125I] human PP; details: membrane protein; 50 pM [125I] human PP; test compounds at 5 µM final concentration; read-out: IC50 (µM) NPY receptor indicated hY4/pp1
Sequence of human Y4/PP1 (P50391 whole entry): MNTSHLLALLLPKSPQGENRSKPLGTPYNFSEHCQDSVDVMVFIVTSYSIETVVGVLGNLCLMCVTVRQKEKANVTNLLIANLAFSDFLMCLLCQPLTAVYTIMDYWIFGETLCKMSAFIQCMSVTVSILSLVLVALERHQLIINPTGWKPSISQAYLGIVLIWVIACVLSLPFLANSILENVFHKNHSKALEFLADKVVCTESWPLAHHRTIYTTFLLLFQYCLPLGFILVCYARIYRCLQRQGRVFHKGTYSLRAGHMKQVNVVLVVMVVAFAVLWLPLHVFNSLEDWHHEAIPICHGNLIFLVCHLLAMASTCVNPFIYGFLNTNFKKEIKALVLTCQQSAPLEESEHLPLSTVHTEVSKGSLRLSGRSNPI
Procedure: Assays to determine binding affinity for human NPY Y2 and Y4/PP1 receptor subtypes are performed on GF/C Millipore 96-well plates pretreated with 0.02% polyethylenimine. The binding buffer for rat NPY Y2 receptor subtype binding is Krebs-Ringer bicarbonate (pH 7.4) containing 0.01% BSA and 0.005% bacitracin. Samples consist of membrane protein, 25 pM [^125I]PYY and test compounds at 5 µM final concentration. Nonspecific binding is defined by 1 µM NPY. The binding buffer for human Y4/PP1 binding consists of 137 mM NaCl, 5.4 mM KCl, 0.44 mM KH2PO4, 1.26 mM CaCl2, 0.81 mM MgSO4, 20 mM HEPES, 1 mM dithiothreitol, 0.1% bacitracin, 100 mg/l streptomycin sulfate, 1 mg/l aprotinin, 10 mg/ml soybean trypsin inhibitor and 0.3% BSA, pH 7.4. Samples consist of membrane protein, 50 pM human [^125I] human PP (hPP:NEN DuPont, Boston MA) and test compounds diluted to a final concentration of 5 µM. One µM hPP is used to define nonspecific binding. After a 2 hour incubation at room temperature with constant mixing, the samples are aspirated on a vacuum manifold, and rinsed with ice-cold binding buffer. The amount of radioactivity in each well is quantitated with either gamma counting or liquid scintillation.

rat NPY Y5 receptor = biological target: T2, rat NPY Y5 receptor (Rattus norvegicus, UniProt Q63634); test: In vitro functional assay, forskolin-stimulated cAMP in cells stably expressing the receptor; type: cell-based; details: percentage of forskolin-stimulated adenylate cyclase; 1 µM forskolin; test compound 10 µM; 80 - 120% indicates no significant agonistic effect
T2 construct: expressed in transfected cells
T2 sequence (Q63634 1-445): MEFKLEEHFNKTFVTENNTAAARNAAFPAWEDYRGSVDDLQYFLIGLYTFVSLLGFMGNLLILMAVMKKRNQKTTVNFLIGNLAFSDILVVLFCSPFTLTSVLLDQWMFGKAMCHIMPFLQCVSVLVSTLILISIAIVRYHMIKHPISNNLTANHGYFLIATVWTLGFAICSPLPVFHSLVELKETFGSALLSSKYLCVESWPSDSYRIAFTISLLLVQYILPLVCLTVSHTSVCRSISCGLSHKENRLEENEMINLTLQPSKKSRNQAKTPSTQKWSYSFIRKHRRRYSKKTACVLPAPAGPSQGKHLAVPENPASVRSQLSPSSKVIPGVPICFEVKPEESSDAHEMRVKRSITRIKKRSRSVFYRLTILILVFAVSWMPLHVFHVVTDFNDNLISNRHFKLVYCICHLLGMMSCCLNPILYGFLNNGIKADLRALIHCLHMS
Procedure: An in vitro functional assay to determine rat NPY Y5 receptor subtype binding affinity is performed by resuspending cells stably expressing the rat NPY Y5 receptor in serum-free DMEM containing 10 mM HEPES (pH 7.4) and 1 mM isobutylmethylxanthine (IBMX). One µM forskolin and test compounds at a final concentration of 10 µM are then added to the cells. After a 20 minute incubation of the samples at 37°C, the assay is stopped by placing the samples in boiling water for 3 minutes. The cAMP produced in each sample is quantitated with a radioimmunoassay kit (NEN DuPont). Data are expressed as a percentage of forskolin-stimulated adenylate cyclase. Data between 80 - 120% indicates no significant agonistic effect.

[1] = biological target: T3, human NPY Y1 receptor subtype (Homo sapiens, UniProt P25929); test: NPY Y1 receptor binding, [125I]PYY on SK-N-MC cells; details: test compounds at 5 µM final concentration, [125I]PYY about 50 pM, read-out: IC50 (µM) NPY receptor indicated hY1
T3 construct: host or cells: SK-N-MC cells
T3 sequence (P25929 1-384): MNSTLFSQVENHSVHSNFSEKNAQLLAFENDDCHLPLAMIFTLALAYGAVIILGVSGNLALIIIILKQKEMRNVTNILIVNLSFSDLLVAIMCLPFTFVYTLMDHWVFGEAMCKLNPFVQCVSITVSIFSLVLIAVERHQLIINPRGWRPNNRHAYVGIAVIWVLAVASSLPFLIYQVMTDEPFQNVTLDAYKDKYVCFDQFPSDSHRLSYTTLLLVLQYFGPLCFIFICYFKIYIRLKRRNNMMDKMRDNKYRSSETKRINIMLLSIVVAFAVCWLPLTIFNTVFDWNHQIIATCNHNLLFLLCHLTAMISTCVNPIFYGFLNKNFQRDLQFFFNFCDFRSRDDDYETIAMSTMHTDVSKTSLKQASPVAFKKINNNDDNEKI
Procedure: For instance, test compounds antagonistic to human NPY Y1 receptor subtype can be identified by a modified method of Gordon et al., J. Neurochem. 55:506-513,(1990), wherein SK-N-MC cells (ATCC, Rockville, ND) are plated in 24-well plates. Once confluent, the cells are rinsed with Dulbecco's phosphate buffered saline (DPBS). Cells are then preincubated in binding buffer containing serum-free DMEM, 25 mM HEPES (pH 7.3), 0.5% bovine serum albumin (BSA), 0.1% bacitracin and 0.1mM phenylmethylsulfonyl fluoride for 30 minutes at room temperature. Test compounds at a final concentration of 5 µM, and [^125I] PYY (about 50 pM:NEN-DuPont) are added to the wells, and the cells are incubated for an additional 3 hours at room temperature, followed by rinsing with ice-cold DPBS. Nonspecific binding is defined with 1 µM NPY. After lysing the cells with 1% Triton X-100, the amount of radioactivity in the lysates is quantitated with a gamma counter.

[2] = biological target: T4, rat NPY Y5 receptor subtype (Rattus norvegicus, UniProt Q63634); test: NPY Y5 receptor membrane binding, [125I]PYY (rat); details: for IC50: membrane protein, 75-100 pM [125I]PYY, 50% inhibition of specific binding, read-out: IC50 (µM) NPY receptor indicated rY5; for NPY receptor indicated rY5, %@1µM: printed in the rY5 IC50 column
T4 sequence (Q63634 1-445): T2 sequence (Q63634 1-445)
Procedure: (§1) Assays to determine human and rat NPY Y5 receptor subtype binding affinity are performed on GF/C Millipore 96-well plates pretreated with 0.02% polyethylenimine. The binding buffer is 25 mM Tris, 120 mM NaCl, 5 mM KCl, 1.2 mM KH2PO4, 2.5 mM CaCl2, 1.2 mM MgSO4, 0.1% BSA and 0.5 mg/ml bacitracin, pH 7.4. Samples consist of membrane protein, 75-100 pM [^125I] PYY (porcine, NEN-DuPont) and test compounds diluted in binding buffer. Nonspecific binding is defined by 1 µM PYY. After a 2 hour incubation at room temperature with constant mixing, the samples are aspirated on a vacuum manifold and rinsed with ice-cold binding buffer. The amount of radioactivity in each well is quantitated with either gamma counting or liquid scintillation. IC50 values, which correspond to 50% inhibition of specific binding, are determined with non-linear regression analysis.

[3] = biological target: T5, human NPY Y5 receptor subtype (Homo sapiens, UniProt Q15761); test: NPY Y5 receptor membrane binding, [125I]PYY (human); details: membrane protein; 75-100 pM [125I]PYY; 50% inhibition of specific binding; read-out: IC50 (µM) NPY receptor indicated hY5
T5 sequence (Q15761 1-445): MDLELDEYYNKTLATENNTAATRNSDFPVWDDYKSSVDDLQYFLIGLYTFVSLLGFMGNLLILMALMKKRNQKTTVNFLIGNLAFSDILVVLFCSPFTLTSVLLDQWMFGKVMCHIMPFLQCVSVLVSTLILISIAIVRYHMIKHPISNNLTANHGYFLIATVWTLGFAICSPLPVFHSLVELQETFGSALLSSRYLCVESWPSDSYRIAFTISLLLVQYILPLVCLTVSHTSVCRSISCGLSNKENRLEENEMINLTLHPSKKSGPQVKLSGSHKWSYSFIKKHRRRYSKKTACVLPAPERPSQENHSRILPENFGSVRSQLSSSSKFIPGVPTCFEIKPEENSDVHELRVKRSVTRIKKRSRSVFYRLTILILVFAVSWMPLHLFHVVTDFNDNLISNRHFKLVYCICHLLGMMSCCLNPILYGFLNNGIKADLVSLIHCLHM
Procedure: as §1

Row | Compound | IC50 (human NPY Y2) [µM] | IC50 (human Y4/PP1) [µM] | IC50 [1] [µM] | NPY receptor indicated rY5, %@1µM [2] [%@1µM] | IC50 [3] [µM] | % forskolin at 10 µM (rat NPY Y5 receptor) [%] | IC50 [2] [µM]
1 | Cc1ccc(S(=O)(=O)CC(C(=O)c2ccc3ccccc3n2)c2ccccc2)cc1 (centres unmarked) [Compound 1] | > 5 | > 5 | > 5 |  |  | 78 | 9.8
2 | Cc1ccc(S(=O)(=O)CC(C(=O)c2ncc[nH]2)c2ccccc2)cc1 (centres unmarked) [Compound 3, (1H-Imidazol-2-yl)-2-phenyl-3-(toluene-4-sulfonyl)-propan-1-one] | > 5 | > 5 |  | 30 |  |  | 
3 | O=C(c1nc2ccccc2[nH]1)C(CS(=O)(=O)c1cccc2ccccc12)c1ccccc1 (centres unmarked) [Compound 12, 1-(1H-Benzoimidazol-2-yl)-3-(naphthalene-1-sulfonyl)-2-phenyl-propan-1-one] | > 5 | > 5 | > 5 |  | 0.011 |  | 
4 | Cc1ccc(S(=O)(=O)CC(C(=O)c2nc3cc(C)ccc3[nH]2)c2ccccc2)cc1 (centres unmarked) [Compound 13, (5-Methyl-1H-benzoimidazol-2-yl)-2-phenyl-3-(toluene-4-sulfonyl)-propan-1-one] | > 5 | > 5 |  |  | 0.045 |  | 0.036

The next lines start with results.

Row | IC50 (human NPY Y2) [µM] | IC50 (human Y4/PP1) [µM] | IC50 [1] [µM] | NPY receptor indicated rY5, %@1µM [2] [%@1µM] | IC50 [3] [µM] | Compound | % forskolin at 10 µM (rat NPY Y5 receptor) [%] | IC50 [2] [µM]
5 | > 5 | > 5 |  | 2 |  | Cc1ccc(SCC(C(=O)c2nc3ccccc3[nH]2)c2ccccc2)cc1 (centres unmarked) [Compound 4, (1H-Benzoimidazol-2-yl)-2-phenyl-3-p-tolylsulfanyl-propan-1-one] |  | 
6 | > 5 | > 5 |  |  | 0.025 | Cc1ccc([S+]([O-])CC(C(=O)c2nc3ccccc3[nH]2)c2ccccc2)cc1 (centres unmarked) [Compound 5, (1H-Benzoimidazol-2-yl)-2-phenyl-3-(toluene-4-sulfinyl)-propan-1-one] |  | 0.025
7 |  | > 5 | > 5 |  | 0.015 | Cc1ccc(S(=O)(=O)CC(C(=O)c2nc3ccccc3[nH]2)c2ccc(F)cc2)cc1 (centres unmarked) [Compound 9, 1-(1H-Benzoimidazol-2-yl)-2-(4-fluoro-phenyl)-3-(toluene-4-sulfonyl)-propan-1-one] | 105 | 0.014
8 | > 5 | > 5 |  |  | 0.008 | O=C(c1nc2ccccc2[nH]1)C(CS(=O)(=O)c1ccc(Br)cc1)c1ccccc1 (centres unmarked) [Compound 11, 1-(1H-Benzoimidazol-2-yl)-3-(4-bromo-benzenesulfonyl)-2-phenyl-propan-1-one] |  | 
9 | > 5 | > 5 | > 5 |  | 0.005 | Cc1ccc(S(=O)(=O)CC(C(=O)c2nc3ccccc3[nH]2)c2ccccc2)cc1 (centres unmarked) [Compound 15, 1-(1H-Benzoimidazol-2-yl)-2-phenyl-3-(toluene-4-sulfonyl)-propan-1-one] |  | 
